Measurements published in patent publication US10806142B2, “2-amino-5-ketoxime-pyrimidine derivatives and their use for controlling undesired plant growth” (Bayer CropScience Aktiengesellschaft, priority 2015, dated 2020).

How the values were obtained:
[1] = logp (HCOOH), physicochemical characterization; details: HCOOH (formic acid)
Viola tricolor [2] = assay: Post-emergence herbicidal effect; assay type: in vivo; details: visual score after about 3 weeks
Experimental: (§1) [table] 2. Post-Emergence Herbicidal Effect and Crop Plant Compatibility Seeds of monocotyledonous and dicotyledonous weed and crop plants are laid out in sandy loam in wood-fiber pots, covered with soil and cultivated in a greenhouse under good growth conditions. 2 to 3 weeks after sowing, the test plants are treated at the one-leaf stage. The compounds of the invention, formulated in the form of wettable powders (WP) or as emulsion concentrates (EC), are then sprayed onto the green parts of the plants as aqueous suspension or emulsion at a water application rate equating to 600 to 800 L/ha with addition of 0.2% wetting agent. After the trial plants have been left to stand in a greenhouse under optimal growth conditions for about 3 weeks, the efficacy of the formulations is scored visually in comparison to untreated controls (herbicidal action in percent (%): 100% efficacy=the plants have died, 0% efficacy=like control plants).

Polygpnum convolvulus [3] = assay: Post-emergence herbicidal effect; assay type: in vivo; details: visual score after about 3 weeks
Experimental: as §1

Stellaria media [4] = assay: Post-emergence herbicidal effect; assay type: in vivo; details: visual score after about 3 weeks
Experimental: as §1

Amaranthus retroflexus [5] = assay: Post-emergence herbicidal effect; assay type: in vivo; details: visual score after about 3 weeks
Experimental: as §1

Lolium multiflorum = assay: Post-emergence herbicidal effect; assay type: in vivo; details: dosage 320 g a.i./ha, visual score after about 3 weeks
Experimental: as §1

Ipomoea purpurea = assay: Post-emergence herbicidal effect; assay type: in vivo; details: visual score after about 3 weeks
Experimental: as §1

Matricaria inodora [6] = assay: Post-emergence herbicidal effect; assay type: in vivo; details: dosage 320 g a.i./ha, visual score after about 3 weeks
Experimental: as §1

Cyperus esculentus = assay: Post-emergence herbicidal effect; assay type: in vivo; details: dosage 320 g a.i./ha, visual score after about 3 weeks
Experimental: as §1

Abutilon theophrasti [7] = assay: Post-emergence herbicidal effect; assay type: in vivo; details: visual score after about 3 weeks
Experimental: as §1

Viola tricolor [8] = assay: Pre-emergence herbicidal effect; assay type: in vivo
From the text: (§2) 1. Pre-Emergence Herbicidal Effect and Crop Plant Compatibility Seeds of monocotyledonous and dicotyledonous weed plants and crop plants are laid out in wood-fiber pots in sandy loam and covered with soil. The compounds of the invention, formulated in the form of wettable powders (WP) or as emulsion concentrates (EC), are then applied to the surface of the covering soil as aqueous suspension or emulsion at a water application rate equating to 600 to 800 L/ha with addition of 0.2% wetting agent. After the treatment, the pots are placed in a greenhouse and kept under good growth conditions for the trial plants. The damage to the trial plants is scored visually after a trial duration of 3 weeks by comparison with untreated controls (herbicidal activity in percent (%): 100% efficacy=the plants have died, 0% efficacy=like control plants). [table]

Veronica persica = assay: Pre-emergence herbicidal effect; assay type: in vivo
From the text: as §2

Polygpnum convolvulus [9] = assay: Pre-emergence herbicidal effect; assay type: in vivo
From the text: as §2

Stellaria media [10] = assay: Pre-emergence herbicidal effect; assay type: in vivo
From the text: as §2

Amaranthus retroflexus [11] = assay: Pre-emergence herbicidal effect; assay type: in vivo
From the text: as §2

Setaria viridis [12] = assay: Pre-emergence herbicidal effect; assay type: in vivo
From the text: as §2

Echinochloa crus-galli = assay: Pre-emergence herbicidal effect; assay type: in vivo
From the text: as §2

Matricaria inodora [13] = assay: Pre-emergence herbicidal effect; assay type: in vivo
From the text: as §2

Setaria viridis [14] = assay: Post-emergence herbicidal effect; assay type: in vivo; details: visual score after about 3 weeks
Experimental: as §1

Alopecurus myosuroides = assay: Pre-emergence herbicidal effect; assay type: in vivo
From the text: as §2

Avena fatua = assay: Pre-emergence herbicidal effect; assay type: in vivo; details: dosage 320 g a.i./ha
From the text: as §2

Abutilon theophrasti [15] = assay: Pre-emergence herbicidal effect; assay type: in vivo; details: dosage 320 g a.i./ha
From the text: as §2

chromatographic logP [1]	Compound	Herbicidal activity against VIOTR (Viola tricolor [2]; dosage 80 g a.i./ha) [%]	Herbicidal activity against VIOTR (Viola tricolor [2]; dosage 320 g a.i./ha) [%]	Herbicidal activity against AMARE (Amaranthus retroflexus [5]; dosage 320 g a.i./ha) [%]	Herbicidal activity against PHBPU (Ipomoea purpurea; dosage 320 g a.i./ha) [%]	Herbicidal activity against VIOTR (Viola tricolor [8]; dosage 80 g a.i./ha) [%]	Herbicidal activity against VIOTR (Viola tricolor [8]; dosage 320 g a.i./ha) [%]	Herbicidal activity against VERPE (Veronica persica; dosage 80 g a.i./ha) [%]	Herbicidal activity against VERPE (Veronica persica; dosage 320 g a.i./ha) [%]	Herbicidal activity against POLCO (Polygpnum convolvulus [9]; dosage 320 g a.i./ha) [%]	Herbicidal activity against STEME (Stellaria media [10]; dosage 80 g a.i./ha) [%]	Herbicidal activity against STEME (Stellaria media [10]; dosage 320 g a.i./ha) [%]	Herbicidal activity against AMARE (Amaranthus retroflexus [11]; dosage 80 g a.i./ha) [%]	Herbicidal activity against AMARE (Amaranthus retroflexus [11]; dosage 320 g a.i./ha) [%]	Herbicidal activity against SETVI (Setaria viridis [12]; dosage 320 g a.i./ha) [%]	Herbicidal activity against ECHCG (Echinochloa crus-galli; dosage 320 g a.i./ha) [%]	Herbicidal activity against MATIN (Matricaria inodora [13]; dosage 80 g a.i./ha) [%]	Herbicidal activity against MATIN (Matricaria inodora [13]; dosage 320 g a.i./ha) [%]	also measured
5.56	C/C(=N/Oc1ccc(F)cc1)c1cnc(N[C@H]2c3cc(C)ccc3C[C@@H]2C)nc1 [Compound 1.101b, N-[(1R,2S)-2,6-dimethyl-2,3-dihydro-1H-inden-1-yl]-5-[(1Z)-N-(4-fluorophenoxy)ethanimidoyl]pyrimidine-2-amine]	90	90	90	100	90	100	100	100	100	100	100	90	100	100	90	80	100	Herbicidal activity against POLCO (Polygpnum convolvulus [3]; dosage 80 g a.i./ha): 80%; Herbicidal activity against POLCO (Polygpnum convolvulus [3]; dosage 320 g a.i./ha): 100%; Herbicidal activity against STEME (Stellaria media [4]; dosage 80 g a.i./ha): 80%; Herbicidal activity against STEME (Stellaria media [4]; dosage 320 g a.i./ha): 90%; Herbicidal activity against LOLMU (Lolium multiflorum): 100%; Herbicidal activity against MATIN (Matricaria inodora [6]): 100%; Herbicidal activity against CYPES (Cyperus esculentus): 100%; Herbicidal activity against ABUTH (Abutilon theophrasti [7]; dosage 80 g a.i./ha): 80%; Herbicidal activity against ABUTH (Abutilon theophrasti [7]; dosage 320 g a.i./ha): 100%
3.71	CC/C(=N\O)c1cnc(N[C@H]2c3cc(C)ccc3C[C@@H]2C)nc1CC [Compound 1.40a, N-[(1R,2S)-2,6-Dimethyl-2,3-dihydro-1H-inden-1-yl]-4-ethyl-5-[(1E)-N-hydroxypropanimidoyl]pyrimidine-2-amine]	90	90	90	100	100	100	100	100	100	100	100	100	100	100	100	90	100	Herbicidal activity against AMARE (Amaranthus retroflexus [5]; dosage 80 g a.i./ha): 90%; Herbicidal activity against SETVI (Setaria viridis [14]; dosage 80 g a.i./ha): 100%; Herbicidal activity against SETVI (Setaria viridis [14]; dosage 320 g a.i./ha): 100%; Herbicidal activity against PHBPU (Ipomoea purpurea; dosage 80 g a.i./ha): 80%; Herbicidal activity against POLCO (Polygpnum convolvulus [9]; dosage 80 g a.i./ha): 100%; Herbicidal activity against ALOMY (Alopecurus myosuroides; dosage 80 g a.i./ha): 90%; Herbicidal activity against ALOMY (Alopecurus myosuroides; dosage 320 g a.i./ha): 100%; Herbicidal activity against SETVI (Setaria viridis [12]; dosage 80 g a.i./ha): 100%; Herbicidal activity against ECHCG (Echinochloa crus-galli; dosage 80 g a.i./ha): 90%; Herbicidal activity against AVEFA (Avena fatua): 100%; Herbicidal activity against ABUTH (Abutilon theophrasti [15]): 100%
